# Measurements taken from patent US20260167619A2, “INDOLINE COMPOUNDS AND DERIVATIVES AS EGFR INHIBITORS” (BeOne Medicines I GmbH, priority 2020, published 2026).
# Tests used:
# BaF3-LR_TM_CS cells = BaF3-LR_TM_CS cells (Homo sapiens, UniProt P00533, T790M/C797S/L858R, cells depend on it); assay: Cell antiproliferation assay (CellTiter-Glo), BaF3-LR_TM_CS; format: cell-based; details: 48 h treatment, read-out: BaF3-LR_TM_CS IC50
# Outline: (§1)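 Cells exposed 48 h to 8 doses from 5-fold serial dilution (500× DMSO stocks from 5 mM), final 0.2% DMSO. Viability by CellTiter-Glo luminescence; IC50 from four-parameter fit of percent inhibition versus concentration.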
# BaF3-WT cells = BaF3-WT cells (Homo sapiens, UniProt P00533); assay: Cell antiproliferation assay (CellTiter-Glo), BaF3-WT; format: cell-based; details: 48 h treatment, read-out: BaF3-WT IC50
# BaF3-WT cells, sequence (P00533 whole entry, change not shown): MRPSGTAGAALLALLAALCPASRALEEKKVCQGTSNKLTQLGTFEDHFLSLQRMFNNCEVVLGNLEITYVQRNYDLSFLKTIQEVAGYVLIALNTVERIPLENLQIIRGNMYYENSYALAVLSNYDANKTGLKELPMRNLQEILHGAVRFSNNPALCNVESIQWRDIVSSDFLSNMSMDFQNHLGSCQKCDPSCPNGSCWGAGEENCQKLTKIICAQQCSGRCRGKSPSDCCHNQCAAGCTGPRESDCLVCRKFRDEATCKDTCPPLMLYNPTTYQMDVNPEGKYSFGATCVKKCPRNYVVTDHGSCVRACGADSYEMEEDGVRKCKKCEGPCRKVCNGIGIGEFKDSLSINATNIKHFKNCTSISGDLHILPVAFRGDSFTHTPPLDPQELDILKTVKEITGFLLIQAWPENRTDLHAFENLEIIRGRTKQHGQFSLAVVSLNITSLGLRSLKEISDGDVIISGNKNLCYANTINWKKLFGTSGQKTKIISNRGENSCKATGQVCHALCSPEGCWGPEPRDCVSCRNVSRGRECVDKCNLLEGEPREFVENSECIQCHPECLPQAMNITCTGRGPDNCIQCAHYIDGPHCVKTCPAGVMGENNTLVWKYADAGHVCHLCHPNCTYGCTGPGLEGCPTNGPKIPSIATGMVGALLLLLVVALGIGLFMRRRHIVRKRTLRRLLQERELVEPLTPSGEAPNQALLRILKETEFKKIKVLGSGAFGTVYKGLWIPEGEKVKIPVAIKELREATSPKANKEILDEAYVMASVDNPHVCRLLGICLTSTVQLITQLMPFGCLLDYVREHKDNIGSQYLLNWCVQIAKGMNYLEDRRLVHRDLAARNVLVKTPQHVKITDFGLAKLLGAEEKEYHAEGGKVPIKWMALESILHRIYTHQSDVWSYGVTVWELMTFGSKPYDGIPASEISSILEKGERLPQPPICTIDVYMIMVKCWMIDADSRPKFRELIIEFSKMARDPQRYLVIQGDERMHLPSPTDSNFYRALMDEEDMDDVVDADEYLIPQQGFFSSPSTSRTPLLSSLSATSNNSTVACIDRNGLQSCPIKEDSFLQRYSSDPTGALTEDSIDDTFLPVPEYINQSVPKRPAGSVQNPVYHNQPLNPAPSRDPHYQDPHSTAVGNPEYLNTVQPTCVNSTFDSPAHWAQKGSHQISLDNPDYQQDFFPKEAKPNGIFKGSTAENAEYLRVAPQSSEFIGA
# Outline: as §1
# [1] = target: T1, EGFR (aa668-1210, Invitrogen) (Homo sapiens, UniProt P00533); assay: Biochemical EGFR inhibition assay (TR-FRET), wild-type EGFR; details: ATP at Km, 15 min pre-incubation, 60 min reaction; read-out: WT (Km ATP) IC50
# T1 construct: EGFR (aa668-1210, Invitrogen); purchased Invitrogen
# T1 sequence (P00533 668-1210): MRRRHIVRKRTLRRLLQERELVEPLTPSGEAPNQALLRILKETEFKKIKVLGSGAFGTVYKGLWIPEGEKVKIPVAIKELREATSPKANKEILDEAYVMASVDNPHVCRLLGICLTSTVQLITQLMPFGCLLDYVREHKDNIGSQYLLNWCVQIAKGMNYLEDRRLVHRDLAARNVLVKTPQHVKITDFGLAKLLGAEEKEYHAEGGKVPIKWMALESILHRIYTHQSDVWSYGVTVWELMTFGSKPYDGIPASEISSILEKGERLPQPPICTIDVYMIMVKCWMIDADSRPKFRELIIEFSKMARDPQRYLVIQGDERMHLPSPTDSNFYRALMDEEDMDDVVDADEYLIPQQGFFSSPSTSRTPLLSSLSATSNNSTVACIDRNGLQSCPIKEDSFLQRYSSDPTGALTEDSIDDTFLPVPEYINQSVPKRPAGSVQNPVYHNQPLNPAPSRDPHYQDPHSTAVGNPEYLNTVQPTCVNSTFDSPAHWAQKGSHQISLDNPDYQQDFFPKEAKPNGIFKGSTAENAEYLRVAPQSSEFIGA
# Outline: (§2)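 First the enzyme sat with compound for 15 minutes at room temperature, then ATP (Km level) and biotinylated poly-GT were added for a 60 min reaction. Stop solution with EDTA, anti-pTyr cryptate and streptavidin-XL665 followed for 1 h before TR-FRET reading.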
# [2] = target: EGFR(Dell9_T790M_C797S) (aa 669-1210, in house) (Homo sapiens, UniProt P00533, T790M/C797S, form not given); assay: Biochemical EGFR inhibition assay (TR-FRET), Del19/T790M/C797S mutant; details: ATP at Km, 15 min pre-incubation, 60 min reaction; read-out: Del_TM_CS (Km ATP) IC50
# EGFR(Dell9_T790M_C797S) (aa 669-1210, in house), sequence (P00533 with tags, fused parts or gaps DEL746-750/T790M/C797S, form open): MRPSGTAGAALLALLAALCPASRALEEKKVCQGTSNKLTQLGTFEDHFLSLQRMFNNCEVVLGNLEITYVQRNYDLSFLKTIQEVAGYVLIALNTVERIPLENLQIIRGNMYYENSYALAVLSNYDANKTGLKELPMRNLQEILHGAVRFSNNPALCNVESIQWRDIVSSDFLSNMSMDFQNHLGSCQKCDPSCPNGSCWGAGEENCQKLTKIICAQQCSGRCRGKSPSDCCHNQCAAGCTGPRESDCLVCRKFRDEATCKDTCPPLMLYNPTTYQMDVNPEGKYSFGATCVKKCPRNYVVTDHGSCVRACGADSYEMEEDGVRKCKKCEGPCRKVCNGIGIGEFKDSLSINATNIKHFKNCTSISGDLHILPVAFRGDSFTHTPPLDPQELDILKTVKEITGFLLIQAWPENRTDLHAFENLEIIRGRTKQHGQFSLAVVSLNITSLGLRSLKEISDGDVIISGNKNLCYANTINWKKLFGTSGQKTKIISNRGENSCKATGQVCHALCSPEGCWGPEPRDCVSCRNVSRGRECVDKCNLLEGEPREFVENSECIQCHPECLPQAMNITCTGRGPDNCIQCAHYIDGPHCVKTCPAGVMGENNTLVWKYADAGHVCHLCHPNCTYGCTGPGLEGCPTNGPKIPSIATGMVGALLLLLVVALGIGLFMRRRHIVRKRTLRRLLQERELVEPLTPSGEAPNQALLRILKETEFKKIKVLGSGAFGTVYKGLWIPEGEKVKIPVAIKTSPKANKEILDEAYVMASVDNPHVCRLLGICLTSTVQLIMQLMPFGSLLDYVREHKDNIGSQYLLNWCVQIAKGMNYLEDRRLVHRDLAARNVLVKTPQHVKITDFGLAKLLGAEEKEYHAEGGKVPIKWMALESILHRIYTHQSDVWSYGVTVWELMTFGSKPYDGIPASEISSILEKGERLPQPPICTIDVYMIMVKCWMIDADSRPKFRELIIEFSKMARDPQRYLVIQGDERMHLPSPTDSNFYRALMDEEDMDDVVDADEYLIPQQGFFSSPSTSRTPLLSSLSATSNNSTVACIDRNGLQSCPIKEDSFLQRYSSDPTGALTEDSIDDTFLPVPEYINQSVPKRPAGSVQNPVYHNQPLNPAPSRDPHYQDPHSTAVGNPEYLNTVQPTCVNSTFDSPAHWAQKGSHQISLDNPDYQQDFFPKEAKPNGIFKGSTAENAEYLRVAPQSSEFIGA
# Outline: as §2
# BaF3-Del_TM_CS cells = BaF3-Del_TM_CS cells (Homo sapiens, UniProt P00533, T790M/C797S, cells depend on it, form not given); assay: Cell antiproliferation assay (CellTiter-Glo), BaF3-Del_TM_CS; format: cell-based; details: 48 h treatment, read-out: BaF3-Del_TM_CS IC50
# BaF3-Del_TM_CS cells, sequence (P00533 with tags, fused parts or gaps DEL746-750/T790M/C797S, form open): as above
# Outline: as §1
# [3] = target: T2, EGFR(L858R_T790M_C797S) (aa695-end, Invitrogen) (Homo sapiens, UniProt P00533, C797S/L858R/T790M); assay: Biochemical EGFR inhibition assay (TR-FRET), L858R/T790M/C797S mutant; details: ATP at Km, 15 min pre-incubation, 60 min reaction; read-out: LR_TM_CS (Km ATP) IC50
# T2 construct: purchased Invitrogen
# T2 sequence (P00533 695-1210 T790M/C797S/L858R): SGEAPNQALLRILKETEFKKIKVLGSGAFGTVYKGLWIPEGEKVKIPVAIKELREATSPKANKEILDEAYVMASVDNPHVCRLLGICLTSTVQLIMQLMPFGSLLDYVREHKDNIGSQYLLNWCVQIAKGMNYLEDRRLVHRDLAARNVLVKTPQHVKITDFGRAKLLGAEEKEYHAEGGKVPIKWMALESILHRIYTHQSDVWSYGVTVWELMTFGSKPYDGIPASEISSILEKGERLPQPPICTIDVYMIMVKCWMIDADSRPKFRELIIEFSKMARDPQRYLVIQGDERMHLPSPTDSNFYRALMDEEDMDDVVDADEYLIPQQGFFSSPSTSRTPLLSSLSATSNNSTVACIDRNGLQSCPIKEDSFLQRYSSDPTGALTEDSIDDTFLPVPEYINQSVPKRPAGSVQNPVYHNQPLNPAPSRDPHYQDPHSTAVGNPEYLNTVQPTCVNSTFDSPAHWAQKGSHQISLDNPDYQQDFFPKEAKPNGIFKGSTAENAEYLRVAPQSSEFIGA
# Outline: as §2
Compound,GI50 (BaF3-LR_TM_CS cells) [nM],GI50 (BaF3-WT cells) [nM],IC50 [1] [nM],IC50 [2] [nM],GI50 (BaF3-Del_TM_CS cells) [nM],IC50 [3] [nM]
"COc1cc(N2CCC(N3CCN(C)CC3)CC2)ccc1Nc1ncc(Cl)c(Nc2cccc3c2N(S(=O)(=O)C(C)(C)C)CC3)n1 [Example 9, N^4-(1-(tert-butylsulfonyl)indolin-7-yl)-5-chloro-N^2-(2-methoxy-4-(4-(4-methylpiperazin-1-yl)piperidin-1-yl)phenyl)pyrimidine-2,4-diamine]",428,1640,187,186,455,13
"COc1cc(N2CCC(N3CCN(C)CC3)CC2)ccc1Nc1ncc(Cl)c(Nc2ccc(F)c3c2N(S(C)(=O)=O)CC3)n1 [Example 1, 5-chloro-N^4-(4-fluoro-1-(methylsulfonyl)indolin-7-yl)-N^2-(2-methoxy-4-(4-(4-methylpiperazin-1-yl)piperidin-1-yl)phenyl)pyrimidine-2,4-diamine]",152,635,0.55,0.13,48.2,0.1
"CN1CCN(c2ccc(Nc3nc(Nc4cccc5c4N(S(C)(=O)=O)CC5)c4cc[nH]c4n3)c(F)c2F)CC1 [Example 85, N^2-(2,3-difluoro-4-(4-methylpiperazin-1-yl)phenyl)-N^4-(1-(methylsulfonyl)indolin-7-yl)-7H-pyrrolo[2,3-d]pyrimidine-2,4-diamine]",141,274,1300,15,91.6,8.9
"COc1cc(N2CCC(N3CCN(C)CC3)CC2)ccc1Nc1nc(Nc2cccc3c2N(S(C)(=O)=O)CC3)c2c(Cl)c[nH]c2n1 [Example 73, 5-chloro-N^2-(2-methoxy-4-(4-(4-methylpiperazin-1-yl)piperidin-1-yl)phenyl)-N^4-(1-(methylsulfonyl)indolin-7-yl)-7H-pyrrolo[2,3-d]pyrimidine-2,4-diamine]",141,853,4.7,1.6,27.4,0.61
"COc1cc(N2CCC(N3CCN(C)CC3)CC2)ccc1Nc1ncc(Br)c(Nc2cccc3c2N(S(C)(=O)=O)CC3)n1 [Example 34, 5-bromo-N2-(2-methoxy-4-(4-(4-methylpiperazin-1-yl)piperidin-1-yl)phenyl)-N4-(1-(methylsulfonyl)indolin-7-yl)pyrimidine-2,4-diamine]",13,427,0.72,0.24,4.25,0.21
"COc1cc(N2CCC(N(C)C)CC2)ccc1Nc1ncc(Cl)c(Nc2cccc3c2N(S(C)(=O)=O)CC3)n1 [Example 36, 5-chloro-N^2-(4-(4-(dimethylamino)piperidin-1-yl)-2-methoxyphenyl)-N^4-(1-(methylsulfonyl)indolin-7-yl)pyrimidine-2,4-diamine]",25.9,414,0.56,0.22,10,0.41
"COc1cc(N2CCC(N3CCN(C)CC3)CC2)ccc1Nc1nc(Nc2cccc3c2N(S(C)(=O)=O)CC3)c2nc[nH]c2n1 [Example 72, N^2-(2-methoxy-4-(4-(4-methylpiperazin-1-yl)piperidin-1-yl)phenyl)-N^6-(1-(methylsulfonyl)indolin-7-yl)-9H-purine-2,6-diamine]",2200,2600,3.1,1.3,246,1.4
"COc1cc(N2CCC(N3CCN(C)CC3)CC2)ccc1Nc1nc(Nc2cccc3c2N(S(C)(=O)=O)CC3)c2sccc2n1 [Example 75, N^2-(2-methoxy-4-(4-(4-methylpiperazin-1-yl)piperidin-1-yl)phenyl)-N^4-(1-(methylsulfonyl)indolin-7-yl)thieno[3,2-d]pyrimidine-2,4-diamine]",459,1200,148,8.8,349,8.6
"COc1cc(N2CCN(C)[C@H](C)C2)c(C)cc1Nc1nc(Nc2cccc3c2N(S(C)(=O)=O)CC3)c2cc[nH]c2n1 [Example 107, (R)—N2-(4-(3,4-dimethylpiperazin-1-yl)-2-methoxy-5-methylphenyl)-N4-(1-(methylsulfonyl)indolin-7-yl)-7H-pyrrolo[2,3-d]pyrimidine-2,4-diamine]",105,1960,417,7.1,60.8,4.8
"COc1cc(N2CCC(N3CCN(C)CC3)CC2)ccc1Nc1ncc(Cl)c(Nc2cccc3c2N(S(C)(=O)=O)CC3C)n1 (stereo not drawn) [Example 23, 5-chloro-N^2-(2-methoxy-4-(4-(4-methylpiperazin-1-yl)piperidin-1-yl)phenyl)-N^4-(3-methyl-1-(methylsulfonyl)indolin-7-yl)pyrimidine-2,4-diamine]",38.4,453,1.1,0.54,13.3,0.54
"COc1cc(N2CCC(N3CCN(C)CC3)CC2)ccc1Nc1ncc(C(F)(F)F)c(Nc2cccc3c2N(S(C)(=O)=O)CC3)n1 [Example 31, N^2-(2-methoxy-4-(4-(4-methylpiperazin-1-yl)piperidin-1-yl)phenyl)-N^4-(1-(methylsulfonyl)indolin-7-yl)-5-(trifluoromethyl)pyrimidine-2,4-diamine]",109,522,3.1,0.47,26.2,0.33
"CCc1cc(Nc2nc(Nc3cccc4c3N(S(C)(=O)=O)CC4)c3cc[nH]c3n2)c(OC)cc1N1CCC(N2CCN(C)CC2)CC1 [Example 94, N^2-(5-ethyl-2-methoxy-4-(4-(4-methylpiperazin-1-yl)piperidin-1-yl)phenyl)-N^4-(1-(methylsulfonyl)indolin-7-yl)-7H-pyrrolo[2,3-d]pyrimidine-2,4-diamine]",84.8,640,29,1.5,10.9,1.1
"COc1cc(N2CCC(N3CCN(C)CC3)CC2)ccc1Nc1ncc(Cl)c(Nc2cc(C)cc3c2N(S(C)(=O)=O)CC3)n1 [Example 5, 5-chloro-N^2-(2-methoxy-4-(4-(4-methylpiperazin-1-yl)piperidin-1-yl)phenyl)-N^4-(5-methyl-1-(methylsulfonyl)indolin-7-yl)pyrimidine-2,4-diamine]",1290,2320,311,159,971,162
"CCCS(=O)(=O)N1CCc2cccc(Nc3nc(Nc4ccc(N5CCC(N6CCN(C)CC6)CC5)cc4OC)ncc3Cl)c21 [Example 6, 5-chloro-N^2-(2-methoxy-4-(4-(4-methylpiperazin-1-yl)piperidin-1-yl)phenyl)-N^4-(1-(propylsulfonyl)indolin-7-yl)pyrimidine-2,4-diamine]",221,1850,8.1,5.1,233,1.8
"COc1cc(N2CC3(CN(C)C3)C2)c(F)cc1Nc1nc(Nc2cccc3c2N(S(C)(=O)=O)CC3)c2cc[nH]c2n1 [Example 97, N^2-(5-fluoro-2-methoxy-4-(6-methyl-2,6-diazaspiro[3.3]heptan-2-yl)phenyl)-N^4-(1-(methylsulfonyl)indolin-7-yl)-7H-pyrrolo[2,3-d]pyrimidine-2,4-diamine]",240,1930,206,4.3,104,2.4
"COc1cc(N2CCC(N3CCN(C)CC3)CC2)c(C)cc1Nc1nc(Nc2cccc3c2N(S(C)(=O)=O)CC3)c2cc[nH]c2n1 [Example 91, N^2-(2-methoxy-5-methyl-4-(4-(4-methylpiperazin-1-yl)piperidin-1-yl)phenyl)-N^4-(1-(methylsulfonyl)indolin-7-yl)-7H-pyrrolo[2,3-d]pyrimidine-2,4-diamine]",40.5,949,17,0.94,12.8,0.42
"COc1cc(N2CCC(N3CCN(C)CC3)CC2)ccc1Nc1ncc(Cl)c(Nc2cccc3c2N(S(=O)(=O)CC2CC(F)(F)C2)CC3)n1 [Example 11, 5-chloro-N^4-(1-(((3,3-difluorocyclobutyl)methyl)sulfonyl)indolin-7-yl)-N^2-(2-methoxy-4-(4-(4-methylpiperazin-1-yl)piperidin-1-yl)phenyl)pyrimidine-2,4-diamine]",377,2280,37,38,453,5.5
